Source: ChEMBL document CHEMBL1146876, “Structurally diverse 5-substituted pyrimidine nucleosides as inhibitors of Leishmania donovani promastigotes in vitro” (Bioorg Med Chem Lett, 2006)

These molecules were tested on Leishmania donovani (assay: Antileishmanial activity against Leishmania donovani LV9 promastigotes by MTT method).
Type: functional, organism-based
`CCOC(=O)/C(C#N)=C/c1cn([C@H]2C[C@H](OC(C)=O)[C@@H](COC(C)=O)O2)c(=O)[nH]c1=O` gave an IC50 of 39.1 µM. `CC(=O)OC[C@H]1O[C@@H](n2cc(C3C(C#N)=C(N)OC4=C3C(=O)CC(C)(C)C4)c(=O)[nH]c2=O)C[C@@H]1OC(C)=O` (some centres undefined) gave an IC50 of 80.4 µM. `N#CC1=C(N)OC2=C(C(=O)CC(c3ccc(F)cc3)C2)C1c1cn([C@H]2C[C@H](O)[C@@H](CO)O2)c(=O)[nH]c1=O` (some centres undefined) was tested, and the IC50 was 8.4 µM. With `CCOC(=O)C1=C(N)OC2=C(C(=O)CCC2)C1c1cn([C@H]2C[C@H](O)[C@@H](CO)O2)c(=O)[nH]c1=O` (some centres undefined) the IC50 was 10.5 µM. `CC(=O)OC[C@H]1O[C@@H](n2cc(/C=C\C#N)c(=O)[nH]c2=O)C[C@@H]1OC(C)=O` was tested, and the IC50 was > 100 µM. In the case of `CCOC(=O)C1=C(N)OC2=C(C(=O)CC(C)(C)C2)C1c1cn([C@H]2C[C@H](OC(C)=O)[C@@H](COC(C)=O)O2)c(=O)[nH]c1=O` (some centres undefined), the IC50 is reported as > 100 µM. `O=Cc1cn([C@H]2C[C@H](O)[C@@H](CO)O2)c(=O)[nH]c1=O` gave an IC50 of 0.9 µM. In the case of `N#CC1=C(N)Oc2cc3ccccc3c(O)c2C1c1cn([C@H]2C[C@H](O)[C@@H](CO)O2)c(=O)[nH]c1=O` (some centres undefined), the IC50 is reported as > 100 µM. `CC1CC(=O)C2=C(C1)OC(N)=C(C#N)C2c1cn([C@H]2C[C@H](O)[C@@H](CO)O2)c(=O)[nH]c1=O` (some centres undefined) was tested, and the IC50 was 9.4 µM. Molecule `CC(=O)OC[C@H]1O[C@@H](n2cc(C=C(C#N)C#N)c(=O)[nH]c2=O)C[C@@H]1OC(C)=O` has an IC50 of 30.1 µM. Molecule `CC(=O)OC[C@H]1O[C@@H](n2cc(C3C(C#N)=C(N)OC4=C3C(=O)CC(c3ccc(Cl)cc3)C4)c(=O)[nH]c2=O)C[C@@H]1OC(C)=O` (some centres undefined) has an IC50 of 80.2 µM. For `CC1(C)CC(=O)C2=C(C1)OC(N)=C(C#N)C2c1cn([C@H]2C[C@H](O)[C@@H](CO)O2)c(=O)[nH]c1=O` (some centres undefined), the IC50 was > 100 µM. In the case of `CC(=O)OC[C@H]1O[C@@H](n2cc(/C=C/C#N)c(=O)[nH]c2=O)C[C@@H]1OC(C)=O`, the IC50 is reported as > 100 µM. With `N#Cc1cn([C@H]2C[C@H](O)[C@@H](CO)O2)c(=O)[nH]c1=O` the IC50 was > 100 µM. `CC(=O)OC[C@H]1O[C@@H](n2cc(C3C(C#N)=C(N)Oc4cc5ccccc5c(O)c43)c(=O)[nH]c2=O)C[C@@H]1OC(C)=O` (some centres undefined) was tested, and the IC50 was > 100 µM. For `CCOC(=O)/C(C#N)=C/c1cn([C@H]2C[C@H](O)[C@@H](CO)O2)c(=O)[nH]c1=O`, the IC50 was 1.9 µM. `CC(=O)OC[C@H]1O[C@@H](n2cc(C3C(C#N)=C(N)OC4=C3C(=O)CCC4)c(=O)[nH]c2=O)C[C@@H]1OC(C)=O` (some centres undefined) gave an IC50 of 68.7 µM. In the case of `CC(=O)OC[C@H]1O[C@@H](n2cc(C=O)c(=O)[nH]c2=O)C[C@@H]1OC(C)=O`, the IC50 is reported as > 100 µM. Work on `Cc1cn([C@H]2C[C@H](N=[N+]=[N-])[C@@H](CO)O2)c(=O)[nH]c1=O` [ZIDOVUDINE] yielded an IC50 of 3.4 µM. Work on `CC(=O)OC[C@@H]1O[C@H](n2cc(C3C(C#N)=C(N)OC4CC(c5ccc(N(C)C)cc5)CC(=O)C43)c(=O)[nH]c2=O)C[C@H]1OC(C)=O` (some centres undefined) yielded an IC50 of 100 µM. For `CC(=O)OC[C@H]1O[C@@H](n2cc(C3C(C#N)=C(N)OC4=C3C(=O)CC(C)C4)c(=O)[nH]c2=O)C[C@@H]1OC(C)=O` (some centres undefined), the IC50 was > 100 µM. `N#CC(C#N)=Cc1cn([C@H]2C[C@H](O)[C@@H](CO)O2)c(=O)[nH]c1=O` was tested, and the IC50 was 1.5 µM. With `CC1=NN(c2ccccc2)C(=O)/C1=C(\C)c1cn([C@H]2C[C@H](O)[C@@H](CO)O2)c(=O)[nH]c1=O` the IC50 was 3 µM. In the case of `N#CC1=C(N)OC2=C(C(=O)CC(c3ccc(Cl)cc3)C2)C1c1cn([C@H]2C[C@H](O)[C@@H](CO)O2)c(=O)[nH]c1=O` (some centres undefined), the IC50 is reported as > 100 µM. `COC(=O)/C(C#N)=C/c1cn([C@H]2C[C@H](O)[C@@H](CO)O2)c(=O)[nH]c1=O` showed an IC50 of 7.3 µM. Work on `N#C/C=C/c1cn([C@H]2C[C@H](O)[C@@H](CO)O2)c(=O)[nH]c1=O` yielded an IC50 of 92 µM. `CN(C)c1ccc2c(c1)OC(N)=C(C#N)C2c1cn([C@H]2C[C@H](O)[C@@H](CO)O2)c(=O)[nH]c1=O` (some centres undefined) was tested, and the IC50 was > 100 µM. Work on `C[C@@H]1[C@H](O)[C@@H](C)/C=C/C=C/C=C/C=C/C=C/C=C/C=C/[C@H](O[C@@H]2O[C@H](C)[C@@H](O)[C@H](N)[C@@H]2O)C[C@@H]2O[C@](O)(C[C@@H](O)C[C@@H](O)[C@H](O)CC[C@@H](O)C[C@@H](O)CC(=O)O[C@H]1C)C[C@H](O)[C@H]2C(=O)O` [AMPHOTERICIN B] yielded an IC50 of 0.1 µM. Molecule `N#CC1=C(N)OC2=C(C(=O)CCC2)C1c1cn([C@H]2C[C@H](O)[C@@H](CO)O2)c(=O)[nH]c1=O` (some centres undefined) has an IC50 of 1.4 µM. With `CCOC(=O)C1=C(N)OC2=C(C(=O)CC(C)(C)C2)C1c1cn([C@H]2C[C@H](O)[C@@H](CO)O2)c(=O)[nH]c1=O` (some centres undefined) the IC50 was 7.2 µM. `CC(=O)OC[C@H]1O[C@@H](n2cc(C3C(C#N)=C(N)OC4=C3C(=O)CC(c3ccccc3)C4)c(=O)[nH]c2=O)C[C@@H]1OC(C)=O` (some centres undefined) was tested, and the IC50 was 85.9 µM. `N=C(N)c1ccc(OCCCCCOc2ccc(C(=N)N)cc2)cc1` [PENTAMIDINE] showed an IC50 of 6.6 µM. In the case of `CC(=O)OC[C@H]1O[C@@H](n2cc(C3C(C#N)=C(N)OC4=C3C(=O)CC(c3ccc(F)cc3)C4)c(=O)[nH]c2=O)C[C@@H]1OC(C)=O` (some centres undefined), the IC50 is reported as 95.3 µM. `CN(C)c1ccc(C2CC(=O)C3C(C2)OC(N)=C(C#N)C3c2cn([C@@H]3C[C@@H](O)[C@H](CO)O3)c(=O)[nH]c2=O)cc1` (some centres undefined) showed an IC50 of 6.2 µM.
